# Reference: patent US8507219B2, “Method of treating inflammation with statins” (MUSC Foundation for Research Development, priority 1997, dated 2013)
# Experiments:
# iNOS promoter [1] = assay: iNOS promoter-derived CAT activity in rat primary astrocytes; format: cell-based; settings: LPS 1.0 μg/ml, 14 h
# Procedure: (§1) Construction of reporter plasmid, transfection and assay of chloramphenicol acetyl transferase activity The CAT (chloramphenicol acetyl transferase) under the control of nitric oxide synthase promoter (iNOS) was created by subcloning 1.5 kb promoter from pGEM-NOS at Sph I and Sal I restriction sites of pCAT-basic vector (Promega). […]. The cells were transfected by using the lipofectin (Life Technologies Inc., USA) method, as has been described in manufacturer's protocol, with 2 μg of reporter plasmid. They were then stimulated 24 h after transfection and harvested after 14 h of stimulation. CAT activity was measured as has been described.
# [2] = test system: TNF-α production in rat resident macrophages; assay: LPS-/IFN-γ-induced TNF-α production (ELISA) in rat macrophages; format: cell-based; settings: Macrophages, LPS 1.0 μg/ml, 24 h
# PP 1/2A = assay: PP1/2A activity in homogenates of LPS-treated astrocytes; format: cell-based, rat; settings: LPS 1.0 μg/ml, 30 min; okadaic acid 0-20 nM
# Procedure: In vitro PP1/2A assay The extraction and assay for PP1/2A were performed as described (Begum and Ragolia, 1996). Control and treated cells were scraped off the dishes with 0.3 ml of phosphatase extraction buffer containing 20 mM imidazole-HCl, 2 mM EDTA, 2 mM EGTA, pH 7.0, with 10 μg/ml each of aprotinin, leupeptin, antipain, soybean trypsis inhibitor, 1 mM benzamide, and 1 mM PMSF. The cells were sonicated for 10 s and centrifuged at 2000×g for 5 min, and the supernatants were used for the assay of phosphatase activities using the protein phosphatase assay kit (Life Technologies, Inc.) according to the manufacturer's protocol.
# iNOS promoter [3] = assay: iNOS promoter-derived CAT activity in rat macrophages; format: cell-based; settings: LPS 1.0 μg/ml, 14 h
# Procedure: as §1
# [4] = test system: TNF-α production in rat primary astrocytes; assay: LPS-induced TNF-α production (ELISA) in rat primary astrocytes; format: cell-based; settings: Astrocytes, LPS 1.0 μg/ml, 24 h
# Procedure: Determination of TNF-α and IL-1β in culture supernatants Cells were stimulated with LPS in serum-free media for 24 h in the presence or absence of forskolin or rolipram, and concentrations of TNF-α and IL-1β were measured in culture supernatants by using high-sensitivity enzyme-linked immunosorbent assay (R&D Systems, USA) according to the manufacturer's instructions.
# iNOS = assay: Expression of iNOS protein (immunoblot) and mRNA (Northern) in rat primary astrocytes; format: cell-based; settings: LPS 1.0 μg/ml
# Procedure: (§2) Immunoblot analysis for iNOS Following 24 h incubation in the presence or absence of stimuli by different cytokines or LPS, macrophages were scraped off, washed with Hank's buffer, and homogenized in 50 mM Tris-HCl (pH 7.4) containing protease inhibitors (1 nM PMSF, 5 μg/ml aprotinin, 5 μg/ml pepstatin A, and 5 μg/ml leupeptin). After electrophoresis the proteins were transferred onto a nitrocellulose membrane, and the iNOS band was visualized by immunoblotting with antibodies against mouse macrophage iNOS and [^125I]-labeled protein A (Singh et al., 1988).
# RNA isolation, Northern blot analysis, and reverse-transcriptase coupled polymerase chain reaction (RT-PCR) Stimulated peritoneal macrophages were taken out from culture dishes directly by adding Ultraspec-II RNA reagent (Biotecx Laboratories Inc.) and total RNA was isolated according to the manufacturer's protocol. For northern blot analyses, 20 μg of total RNA was electrophoresed on 1.2% denaturing formaldehyde-agarose gels, electrotransferred to Hybond-Nylon Membrane (Amersham) and hybridized at 68° C. with ^32P-labeled cDNA probe using Express Hyb hybridization solution (Clontech) as described by the manufacturer. […]; After hybridization filters were washed two to three times in solution I (2×SSC, 0.05% SDS) for 1 h at room temperature followed by solution II (0.1×SSC, 0.1% SDS) at 50° C. for another hour. The membranes were then dried and exposed to X-ray film (Kodak). The same filters were stripped and rehybridized with probes for GAPDH. The relative mRNA content for iNOS was measured after scanning the bands with a Biorad (Model GS-670) imaging densitometer.
# as §2, with “of” for “of stimuli by”, “stimuli, cells” for “cytokines or LPS, macrophages”, “inhibitors.” for “inhibitors (1 nM PMSF, 5 μg/ml aprotinin, 5 μg/ml pepstatin A, and 5 μg/ml leupeptin).”, “A.” for “A (Singh et al., 1988).”
# RNA isolation and Northern blot analysis Cells were taken out from culture dishes directly by adding Ultraspec-II RNA reagent (Biotecx Laboratories Inc.) and total RNA was isolated according to the manufacturer's protocol. For Northern blot analyses, 20 μg of total RNA was electrophoresed on 1.2% denaturing formaldehyde-agarose gels, electrotransferred to Hybond-Nylon Membrane (Amersham) and hybridized at 68° C. with ^32P-labeled cDNA probe using Express Hyb hybridization solution (Clontech) as described by the manufacturer. […]; After hybridization filters were washed two or three times in solution I (2×SSC, 0.05% SDS) for one hour at room temperature followed by solution II (0.1×SSC, 0.1% SDS) at 50° C. for another hour. The membranes were then dried and exposed with X-ray films (Kodak). The same filters were stripped and rehybridized with probes for GAPDH. The relative mRNA content for iNOS was measured after scanning the bands with a Biorad (Model GS-670) imaging densitometer.
# as §2, with “After a” for “Following”, “of” for “of stimuli by”, “stimuli, cells” for “cytokines or LPS, macrophages”, “mM” for “nM”, “A.” for “A (Singh et al., 1988).”
# RNA isolation and Northern blot analysis Cells were taken out from culture dishes directly by adding Ultraspec-II RNA reagent (Biotecx Laboratories Inc., Houston, Tex.), and total RNA was isolated according to the manufacturer's protocol. […]
# [5] = test system: NO production in rat resident macrophages; assay: LPS-/cytokine-induced NO production (nitrite) in rat resident peritoneal macrophages; format: cell-based; settings: LPS 1.0 μg/ml, 24 h
# Procedure: Isolation of Rat Macrophages and Induction of NO Production Resident macrophages were obtained from rats by peritoneal lavage with sterile RPMI 1640 medium containing 1% fetal bovine serum and 100 μg/ml gentamicin (Wang et al., 1995). Cells were washed three times with RPMI 1640 at 4° C. All cell cultures were maintained at 37° C. in a humidified incubator containing 5% CO2 in air. Macrophages, at a concentration of 2×10^6/ml in RPMI 1640 medium containing L-glutamine and gentamicin, were added in volumes of 800 μl to a 35 mm plate. After 1 h, nonadherent cells were removed by washing and 800 μl of serum-free RPMI 1640 medium with various stimuli were added to the adherent cells. After 24 h incubation in 5% CO2 in air at 37° C., the culture supernatants were transferred to measure NO production (Geng et al., 1995; Wang et al., 1995).
# Isolation of rat macrophages and induction of NO production Resident macrophages were obtained from rat by peritoneal lavage with sterile RPMI 1640 medium containing 1% fetal bovine serum and 100 μg/ml gentamicin as described herein. Cells were washed three times with RPMI 1640 at 4° C. All cell cultures were maintained at 37° C. in a humidified incubator containing 5% CO2 in air. Macrophages at a concentration of 2×10^6/ml in RPMI 1640 medium containing L-glutamine and gentamicin were added in volumes of 800 μl to a 35 mm plate. After 1 h, nonadherent cells were removed by washing and 800 μl of serum-free RPMI 1640 medium with various stimuli were added to the adherent cells. After incubation in 5% CO2 in air at 37° C., culture supernatants were transferred to measure NO production.
# Isolation of rat macrophages and induction of NO production Resident macrophages were obtained from rat by peritoneal lavage with sterile RPMI 1640 medium containing 1% FBS and 100 μg/ml gentamicin. Cells were washed three times with RPMI 1640 at 4° C., and were maintained at 37° C. in a humidified incubator containing 5% CO2 in air. Macrophages at a concentration of […] in RPMI 1640 medium containing L-glutamine and gentamicin were added in volumes of 800 μl to a 35-mm plate. After 1 h, nonadherent cells were removed by washing, and 800 μl of serum-free RPMI 1640 medium with various stimuli was added to the adherent cells. After 24 h the culture supernatants were transferred to measure NO production.
# Protein was measured (Bradford, 1976).
# [6] = test system: murine macrophage cell line RAW 264.7; assay: LPS-/cytokine-induced NO production and iNOS protein in RAW 264.7; format: cell-based; settings: 24 h
# Procedure: Cells in this study were incubated in serum-free DMEM/F-12 received calyculin A along with LPS and cytokines. Samples tested included control, LPS+TNF-α, TNF-α+IFN-γ, TNF-α+IL-1β, LPS+TNF-α+calyculin A, TNF-α+IFN-γ+calyculin A, and TNF-α+IL-1β+calyculin A. After 24 h, concentration of nitrite (nmol/mg/24 h) was measured in the supernatants as described in Example 6. Data are mean±S.D. of three different studies. Cell homogenates were electrophoresed, transferred on […] against mouse macrophage iNOS as described.
# [7] = test system: NO production in rat C6 glial cells; assay: LPS-/cytokine-induced NO production (nitrite) in C6 glial cells; format: cell-based; settings: 2 nM calyculin A along with LPS and cytokines, 24 h
SMILES,LPS-induced iNOS promoter-derived CAT activity (iNOS promoter [1]),TNF-α ([2]; inhibitor 5 nM) [ng/24 h/mg protein],TNF-α ([2]; inhibitor 10 nM) [ng/24 h/mg protein],activities of PP 1/2A (PP 1/2A),LPS-induced iNOS promoter-derived CAT activity (iNOS promoter [3]),TNF-α ([4]; inhibitor 5 nM) [ng/24 h/mg protein],TNF-α ([4]; inhibitor 10 nM) [ng/24 h/mg protein],LPS-mediated induction of iNOS protein and mRNA (iNOS),LPS-induced NO production [5],TNF-α ([2]; inhibitor 1 nM) [ng/24 h/mg protein],TNF-α ([2]; inhibitor 2 nM) [ng/24 h/mg protein],LPS- and cytokine-induced production of NO and iNOS protein [6],TNF-α ([4]; inhibitor 1 nM) [ng/24 h/mg protein],TNF-α ([4]; inhibitor 2 nM) [ng/24 h/mg protein],stimulation of the production of NO [7]
C=C1[C@@H](O)[C@@H]2O[C@]3(CC[C@H](/C=C/[C@@H](C)[C@@H]4CC(C)=C[C@@]5(O[C@H](C[C@@](C)(O)C(=O)O)CC[C@H]5O)O4)O3)CC[C@H]2O[C@@H]1[C@@H](O)C[C@H](C)[C@H]1O[C@@]2(CCCCO2)CC[C@H]1C [Okadaic acid],stimulated the LPS-induced CAT activity in astrocytes,24.3 ± 1.9,28.9 ± 3.4,dose-dependently inhibited the activities of PP 1/2A,inhibited the LPS-induced CAT activity in macrophages,10.8 ± 1.2,14.6 ± 1.8,,,,,,,,
COC[C@@H]([C@H](O)[C@H](O)C(=O)NCC[C@H](C)c1nc(/C=C/C[C@@H]2O[C@]3(C[C@@H](O)[C@@H]2C)O[C@H]([C@H](C[C@H](O)[C@H](C)[C@H](O)[C@H](C)/C=C(C)/C(C)=C/C=C/C(C)=C\C#N)OC)[C@H](OP(=O)(O)O)C3(C)C)co1)N(C)C [Calyculin A],,,,also inhibited the activities of PP 1/2A,,,,enhanced the LPS-mediated induction of iNOS protein and mRNA,inhibited the LPS-induced NO production in rat peritoneal macrophages,27.5 ± 3.1,31.2 ± 3.6,inhibit the LPS- and cytokine-induced production of NO and the expression of iNOS protein,12.5 ± 1.6,16.9 ± 2.1,more than three fold
